The source of these data is ChEMBL document CHEMBL1201862, “PubChem BioAssay data set” (2004).

Calls of active or inactive are those of the source.

Data set [1] deals with T1, Kappa-type opioid receptor (Homo sapiens, UniProt P41145). Put plainly: kappa opioid receptor activation by imaging – image-based, set 3, SAR follow-up (AID 488833). In kind it is functional.
Data set [2] concerns the target T1, Kappa-type opioid receptor. Kind of data set: SAR analysis of small molecule agonists of the kappa opioid receptor via a luminescent beta-arrestin assay - Set 3. [Related pubchem assays (depositor defined):AID1777, AID1785, AID1786, AID1966, AID2133, AID2136, AID2284, AID2500]. It counts as functional.
Data set [3] deals with Mu-type opioid receptor (Homo sapiens, UniProt P35372). Put plainly: SAR Analysis of Agonists of the MOR Receptor using an Image-Based Assay - Set 3. [Related pubchem assays (depositor defined):AID1777, AID1785, AID1786, AID1966, AID2133, AID2136, AID2284, AID2285, AID2352]. It counts as functional.
In data set [4] the target is Delta-type opioid receptor (Homo sapiens, UniProt P41143). Kind of data set: SAR Analysis of Agonists of the DOR Receptor using an Image-Based Assay - Set 3. [Related pubchem assays (depositor defined):AID1777, AID1786]. It counts as functional.
Data set [5] addresses Intestinal-type alkaline phosphatase (Mus musculus, UniProt P24822). Put plainly: mouse intestinal alkaline phosphatase activators, dose response, biochemical, luminescence, uHTS hits (AID 488783). In kind it is functional.
The target in data set [6] is Induced myeloid leukemia cell differentiation protein Mcl-1 (Homo sapiens, UniProt Q07820). Put plainly: blockers of MCL1 binding to BIM peptide – biochemical, fluorescence polarization, BIM-BH3 peptide, 1536-well, dose response (AID 2217). For orientation: In fluorescence polarisation assays a small probe gives low polarisation when free and higher when bound to something large.

Data set [7] has as its target T2, Alkaline phosphatase, tissue-nonspecific isozyme (Homo sapiens, UniProt P05186).
T2 sequence (P05186 whole entry): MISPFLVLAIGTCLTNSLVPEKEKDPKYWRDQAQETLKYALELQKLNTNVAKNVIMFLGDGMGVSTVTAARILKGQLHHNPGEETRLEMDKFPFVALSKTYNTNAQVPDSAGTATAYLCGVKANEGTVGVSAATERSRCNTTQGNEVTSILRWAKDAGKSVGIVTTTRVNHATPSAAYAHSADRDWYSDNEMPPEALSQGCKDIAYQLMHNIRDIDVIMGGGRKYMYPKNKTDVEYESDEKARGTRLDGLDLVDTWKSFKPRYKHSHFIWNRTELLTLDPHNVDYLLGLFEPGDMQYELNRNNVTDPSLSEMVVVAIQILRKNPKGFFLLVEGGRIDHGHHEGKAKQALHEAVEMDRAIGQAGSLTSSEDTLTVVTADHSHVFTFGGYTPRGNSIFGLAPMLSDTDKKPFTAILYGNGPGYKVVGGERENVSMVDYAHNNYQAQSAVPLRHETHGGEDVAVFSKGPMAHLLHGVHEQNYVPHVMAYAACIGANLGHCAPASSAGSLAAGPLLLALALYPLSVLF
Kind of data set: activation of tissue-nonspecific alkaline phosphatase – biochemical, TNAP isozyme, mouse IAP uHTS hits, selectivity assay for mouse IAP activator project, dose response (AID 488880). In kind it is functional.

For data set [8], the target named is Bcl-2-like protein 1 (Homo sapiens, UniProt Q07817). Kind of data set: blockers of BCLXL peptide binding – biochemical, fluorescence polarization, 1536-well, selectivity assay for MCL1 inhibitor project, dose response (AID 2218).
The target of data set [9] is Albumin (Bos taurus, UniProt P02769). Put plainly: Counterscreen for inhibitors of T-cell receptor (TCR)-CD3 interaction: Fluorescence-based biochemical high throughput dose response assay to identify inhibitors of T-cell receptor (TCR)-CD3 interaction using a TAMRA-labeled BSA probe. It counts as functional. (In general: Counterscreens check selectivity or assay interference.)

Data set [10] addresses Genome polyprotein (dengue virus type 2, UniProt P29990). Kind of data set: flavivirus cap methylation enzyme inhibition – biochemical, confirmation dose response, primary screen (AID 588689). It counts as functional.
Data set [11] concerns the target Intestinal-type alkaline phosphatase (Homo sapiens, UniProt P09923). Put plainly: activation of human intestinal alkaline phosphatase – biochemical, dose response (AID 488873). In kind it is functional.
A short description of data set [12]: T. cruzi infection blockers in NIH3T3 cells – beta-gal luminescence, NIH3T3 host cells, confirmation (AID 2630). In kind it is functional, cell-based. Particulars: Mus musculus.
In data set [13] the target is Phosphomannomutase 2 (Homo sapiens, UniProt O15305). Put plainly: Counter screen SAR assay for PMM2 inhibitors via a fluorescence intensity assay. [Related pubchem assays (depositor defined):AID1545, AID1574].
The target in data set [14] is T3, Mannose-6-phosphate isomerase (Homo sapiens, UniProt P34949).
T3 sequence (P34949 whole entry): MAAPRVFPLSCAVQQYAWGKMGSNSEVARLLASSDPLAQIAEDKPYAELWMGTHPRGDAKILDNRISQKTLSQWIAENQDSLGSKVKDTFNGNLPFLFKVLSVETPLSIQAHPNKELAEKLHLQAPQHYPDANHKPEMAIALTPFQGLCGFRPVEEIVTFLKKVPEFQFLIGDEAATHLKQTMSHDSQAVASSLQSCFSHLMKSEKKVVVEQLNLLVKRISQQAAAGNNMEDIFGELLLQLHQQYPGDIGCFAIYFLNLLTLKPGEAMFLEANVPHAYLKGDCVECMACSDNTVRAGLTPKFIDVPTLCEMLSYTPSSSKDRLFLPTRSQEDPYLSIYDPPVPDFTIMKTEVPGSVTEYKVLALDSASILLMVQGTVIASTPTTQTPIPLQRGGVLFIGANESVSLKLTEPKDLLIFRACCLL
Put plainly: phosphomannose isomerase inhibition – biochemical, fluorescence intensity, confirmation (AID 1535).

Data set [15] deals with T4, Cannabinoid receptor 1 (Homo sapiens, UniProt P21554). Kind of data set: SAR analysis of agonists of the Cannabinoid Receptor 1 using an Image-Based Assay - Set 4. [Related pubchem assays (depositor defined):AID2013, AID2026]. In kind it is functional.
Data set [16] has as its target T5, G-protein coupled receptor 35 (Homo sapiens, UniProt Q9HC97). Put plainly: SAR analysis of Antagonists of the GPR35 Receptor using an Image-Based Assay - Set 6. [Related pubchem assays (depositor defined):AID2013, AID2026]. It counts as functional.
The target of data set [17] is T5, G-protein coupled receptor 35. Kind of data set: SAR analysis of Agonists of the GPR35 Receptor using an Image-Based Assay - Set 4. [Related pubchem assays (depositor defined):AID2013, AID2026]. In kind it is functional.
Data set [18] deals with T6, Cannabinoid receptor 2 (Homo sapiens, UniProt P34972). Put plainly: SAR analysis of agonists of the Cannabinoid Receptor 2 using an Image-Based Assay - Set 3. [Related pubchem assays (depositor defined):AID2013, AID2026]. In kind it is functional.
Data set [19] addresses T7, High affinity choline transporter 1 (Homo sapiens, UniProt Q9GZV3).
T7 sequence (Q9GZV3 whole entry): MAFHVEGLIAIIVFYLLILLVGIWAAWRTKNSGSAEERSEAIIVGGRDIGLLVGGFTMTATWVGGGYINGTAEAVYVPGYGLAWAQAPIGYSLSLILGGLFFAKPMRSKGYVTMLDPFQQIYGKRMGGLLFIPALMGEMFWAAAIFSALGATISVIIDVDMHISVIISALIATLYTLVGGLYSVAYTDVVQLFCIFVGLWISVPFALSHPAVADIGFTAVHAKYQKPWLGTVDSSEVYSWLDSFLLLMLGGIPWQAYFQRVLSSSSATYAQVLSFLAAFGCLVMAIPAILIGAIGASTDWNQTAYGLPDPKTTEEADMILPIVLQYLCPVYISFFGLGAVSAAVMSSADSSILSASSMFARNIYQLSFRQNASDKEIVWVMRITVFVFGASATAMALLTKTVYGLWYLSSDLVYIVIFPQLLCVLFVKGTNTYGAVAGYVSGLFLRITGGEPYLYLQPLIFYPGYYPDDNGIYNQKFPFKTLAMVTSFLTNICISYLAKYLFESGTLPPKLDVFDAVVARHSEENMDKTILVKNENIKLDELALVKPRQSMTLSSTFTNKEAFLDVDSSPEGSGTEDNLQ
Kind of data set: human choline transporter blockers, potency – cell-based, 5-point CRC, membrane potential dye, dose response (AID 504840). It counts as functional.

Data set [20] has as its target T4, Cannabinoid receptor 1. Put plainly: SAR analysis of antagonists of the Cannabinoid Receptor 1 using an Image-Based Assay - Set 4. [Related pubchem assays (depositor defined):AID2013, AID2026]. In kind it is functional.
In data set [21] the target is T6, Cannabinoid receptor 2. Put plainly: SAR analysis of antagonists of the Cannabinoid Receptor 2 using an Image-Based Assay - Set 3. [Related pubchem assays (depositor defined):AID2013, AID2026]. It counts as functional.
In data set [22] the target is COUP transcription factor 2 (Homo sapiens, UniProt P24468). Kind of data set: Luminescence-based cell-based high throughput dose response assay to identify inhibitors of COUP-TFII (NR2F2). In kind it is functional.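 Further: HEK293 cells transiently cotransfected with COUP-TFII expression vector and reporter; luciferase reporter luminescence driven by COUP-TFII from the pX2-168 reporter plasmid.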
Data set [23] has as its target G-protein coupled receptor 55 (Homo sapiens, UniProt Q9Y2T6). Kind of data set: SAR Analysis of Selective Antagonists of GPR55 using an Image-Based Assay - Set 4. [Related pubchem assays (depositor defined):AID2013, AID2026]. It counts as functional.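 Further: antagonism of response to 5 µM lysophosphatidylinositol agonist.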
Data set [24] concerns the target Cytochrome P450 3A4 (Homo sapiens, UniProt P08684).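 Further: CYP3A4 tested as one member of a cytochrome P450 panel screen.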
Data set [25] concerns the target Cytochrome P450 2C19 (Homo sapiens, UniProt P33261). Kind of data set: Cytochrome panel assay with activity outcomes. Panel member name: p450-cyp2c19 Compounds with AC50 equal or less than 10 uM are considered active. It counts as functional. Particulars: read-out: AC50.
Data set [26] concerns the target Cytochrome P450 2C9 (Homo sapiens, UniProt P11712).
For data set [27], the target named is T8, Cytochrome P450 1A2 (Homo sapiens, UniProt P05177).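 Further: PubChem cytochrome P450 panel assay, CYP1A2 panel member.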
T8 sequence (P05177 whole entry): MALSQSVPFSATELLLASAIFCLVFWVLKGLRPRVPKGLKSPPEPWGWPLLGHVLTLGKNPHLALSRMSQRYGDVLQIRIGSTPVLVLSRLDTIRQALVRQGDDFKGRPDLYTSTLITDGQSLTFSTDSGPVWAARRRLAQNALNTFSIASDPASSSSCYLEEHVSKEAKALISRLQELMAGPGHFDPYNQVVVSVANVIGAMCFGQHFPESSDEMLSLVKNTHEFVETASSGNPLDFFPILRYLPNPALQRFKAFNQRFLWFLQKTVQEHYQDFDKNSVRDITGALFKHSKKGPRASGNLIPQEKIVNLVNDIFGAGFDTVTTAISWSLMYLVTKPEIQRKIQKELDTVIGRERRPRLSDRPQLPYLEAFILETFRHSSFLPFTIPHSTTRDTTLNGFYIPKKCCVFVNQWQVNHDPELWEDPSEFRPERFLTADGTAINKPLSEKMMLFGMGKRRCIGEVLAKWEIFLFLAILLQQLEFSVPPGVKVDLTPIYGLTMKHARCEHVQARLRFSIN

T5 sequence (Q9HC97 whole entry): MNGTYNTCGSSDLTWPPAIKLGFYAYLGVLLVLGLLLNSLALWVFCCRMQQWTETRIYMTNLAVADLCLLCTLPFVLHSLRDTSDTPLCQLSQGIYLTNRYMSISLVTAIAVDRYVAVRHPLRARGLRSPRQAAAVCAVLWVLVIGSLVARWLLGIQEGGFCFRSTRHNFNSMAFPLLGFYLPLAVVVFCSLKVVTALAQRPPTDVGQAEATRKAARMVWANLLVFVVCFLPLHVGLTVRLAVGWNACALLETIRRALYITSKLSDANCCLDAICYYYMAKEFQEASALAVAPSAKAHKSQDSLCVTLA
T1 sequence (P41145 whole entry): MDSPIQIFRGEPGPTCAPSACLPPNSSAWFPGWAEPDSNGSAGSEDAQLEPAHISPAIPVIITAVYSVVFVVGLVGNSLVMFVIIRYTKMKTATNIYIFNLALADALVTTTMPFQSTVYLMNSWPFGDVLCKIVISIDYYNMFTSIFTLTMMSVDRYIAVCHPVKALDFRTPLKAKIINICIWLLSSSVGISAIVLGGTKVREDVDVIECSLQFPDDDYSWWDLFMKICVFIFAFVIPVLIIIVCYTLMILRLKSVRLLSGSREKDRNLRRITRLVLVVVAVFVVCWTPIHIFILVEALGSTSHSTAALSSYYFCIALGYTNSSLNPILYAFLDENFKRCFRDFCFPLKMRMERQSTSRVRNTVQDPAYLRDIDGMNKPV
Chain of Cytochrome P450 2C19 (P33261 whole entry): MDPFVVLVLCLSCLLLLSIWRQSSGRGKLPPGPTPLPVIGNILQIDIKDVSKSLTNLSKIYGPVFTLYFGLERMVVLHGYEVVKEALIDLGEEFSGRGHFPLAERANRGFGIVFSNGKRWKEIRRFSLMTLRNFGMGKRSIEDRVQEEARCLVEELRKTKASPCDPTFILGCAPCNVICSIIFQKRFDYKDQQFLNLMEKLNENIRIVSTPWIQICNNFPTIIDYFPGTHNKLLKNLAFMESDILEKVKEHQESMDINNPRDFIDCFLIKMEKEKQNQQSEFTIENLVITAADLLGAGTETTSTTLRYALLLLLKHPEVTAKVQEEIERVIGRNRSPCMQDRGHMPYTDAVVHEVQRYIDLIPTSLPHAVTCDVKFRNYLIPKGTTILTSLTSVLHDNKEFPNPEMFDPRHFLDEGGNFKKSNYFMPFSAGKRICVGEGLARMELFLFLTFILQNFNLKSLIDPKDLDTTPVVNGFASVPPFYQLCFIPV
T6 sequence (P34972 whole entry): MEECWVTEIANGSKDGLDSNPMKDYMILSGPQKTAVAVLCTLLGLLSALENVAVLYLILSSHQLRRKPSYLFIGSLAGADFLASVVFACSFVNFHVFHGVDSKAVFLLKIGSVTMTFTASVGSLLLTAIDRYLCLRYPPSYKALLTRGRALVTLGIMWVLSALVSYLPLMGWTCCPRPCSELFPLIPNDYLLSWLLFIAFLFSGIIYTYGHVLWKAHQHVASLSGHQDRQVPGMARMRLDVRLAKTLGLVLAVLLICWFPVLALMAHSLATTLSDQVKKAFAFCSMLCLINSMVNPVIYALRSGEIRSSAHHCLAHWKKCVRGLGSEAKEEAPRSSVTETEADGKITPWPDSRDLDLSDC
T4 sequence (P21554 whole entry): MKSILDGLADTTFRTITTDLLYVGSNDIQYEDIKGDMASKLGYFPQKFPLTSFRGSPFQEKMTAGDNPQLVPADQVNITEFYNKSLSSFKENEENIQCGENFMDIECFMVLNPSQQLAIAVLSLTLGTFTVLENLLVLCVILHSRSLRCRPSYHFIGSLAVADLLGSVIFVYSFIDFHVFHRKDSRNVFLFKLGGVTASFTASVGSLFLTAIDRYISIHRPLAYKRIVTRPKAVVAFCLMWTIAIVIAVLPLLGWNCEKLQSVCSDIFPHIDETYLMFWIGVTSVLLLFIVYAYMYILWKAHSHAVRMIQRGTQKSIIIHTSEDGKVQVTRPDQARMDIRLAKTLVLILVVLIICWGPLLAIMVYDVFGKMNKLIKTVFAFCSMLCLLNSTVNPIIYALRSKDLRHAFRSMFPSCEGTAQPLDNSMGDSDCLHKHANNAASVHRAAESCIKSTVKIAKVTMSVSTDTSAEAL
Chain of Intestinal-type alkaline phosphatase (Homo sapiens, UniProt P09923) (P09923 whole entry): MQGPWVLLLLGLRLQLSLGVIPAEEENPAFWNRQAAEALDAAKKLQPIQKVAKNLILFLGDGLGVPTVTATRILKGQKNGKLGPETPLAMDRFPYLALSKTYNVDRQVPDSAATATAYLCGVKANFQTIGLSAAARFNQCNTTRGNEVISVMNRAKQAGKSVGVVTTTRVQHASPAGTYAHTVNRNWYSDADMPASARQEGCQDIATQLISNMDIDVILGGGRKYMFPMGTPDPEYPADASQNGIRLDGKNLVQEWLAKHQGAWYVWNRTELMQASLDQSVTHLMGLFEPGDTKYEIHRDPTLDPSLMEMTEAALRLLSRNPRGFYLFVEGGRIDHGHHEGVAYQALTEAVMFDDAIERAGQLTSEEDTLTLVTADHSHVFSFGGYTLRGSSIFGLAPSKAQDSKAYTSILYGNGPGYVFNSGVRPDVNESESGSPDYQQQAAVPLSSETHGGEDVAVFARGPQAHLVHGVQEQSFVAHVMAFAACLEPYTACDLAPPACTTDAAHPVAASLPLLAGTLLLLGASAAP
Chain of Cytochrome P450 2C9 (P11712 whole entry): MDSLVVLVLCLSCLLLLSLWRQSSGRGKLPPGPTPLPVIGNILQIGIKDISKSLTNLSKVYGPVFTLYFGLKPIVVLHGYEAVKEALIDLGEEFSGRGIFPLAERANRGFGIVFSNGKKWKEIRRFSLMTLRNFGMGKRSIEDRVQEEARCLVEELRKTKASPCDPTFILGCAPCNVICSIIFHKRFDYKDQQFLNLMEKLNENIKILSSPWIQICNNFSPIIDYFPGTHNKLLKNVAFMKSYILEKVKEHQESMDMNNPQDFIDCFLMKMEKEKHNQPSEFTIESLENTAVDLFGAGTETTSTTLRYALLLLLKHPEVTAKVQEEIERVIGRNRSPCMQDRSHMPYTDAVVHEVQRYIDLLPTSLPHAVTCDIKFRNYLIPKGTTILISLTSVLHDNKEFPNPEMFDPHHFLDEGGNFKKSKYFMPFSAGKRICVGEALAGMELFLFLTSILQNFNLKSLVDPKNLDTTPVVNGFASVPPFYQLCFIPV
Chain of Induced myeloid leukemia cell differentiation protein Mcl-1 (Q07820 whole entry): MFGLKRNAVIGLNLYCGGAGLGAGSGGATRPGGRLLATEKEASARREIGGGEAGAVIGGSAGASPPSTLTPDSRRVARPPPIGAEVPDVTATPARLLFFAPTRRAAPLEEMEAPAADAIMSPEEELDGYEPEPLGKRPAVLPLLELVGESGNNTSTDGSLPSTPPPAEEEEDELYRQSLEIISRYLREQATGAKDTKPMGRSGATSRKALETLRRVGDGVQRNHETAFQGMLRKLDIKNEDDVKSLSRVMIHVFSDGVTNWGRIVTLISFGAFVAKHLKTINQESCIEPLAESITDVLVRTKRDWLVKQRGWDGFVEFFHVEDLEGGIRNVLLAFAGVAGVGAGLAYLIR
Chain of COUP transcription factor 2 (P24468 whole entry): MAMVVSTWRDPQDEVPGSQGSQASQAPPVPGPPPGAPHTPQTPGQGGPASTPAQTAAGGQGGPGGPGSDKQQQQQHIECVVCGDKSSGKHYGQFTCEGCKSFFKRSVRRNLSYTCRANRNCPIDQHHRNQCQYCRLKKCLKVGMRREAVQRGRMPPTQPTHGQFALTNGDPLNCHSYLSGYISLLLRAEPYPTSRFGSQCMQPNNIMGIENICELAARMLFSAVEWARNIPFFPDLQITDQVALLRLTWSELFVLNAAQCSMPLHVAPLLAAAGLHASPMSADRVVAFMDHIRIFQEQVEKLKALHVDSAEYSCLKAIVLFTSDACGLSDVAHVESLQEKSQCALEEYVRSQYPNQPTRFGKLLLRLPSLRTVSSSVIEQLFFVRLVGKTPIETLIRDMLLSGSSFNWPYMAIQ
Chain of Mu-type opioid receptor (P35372 whole entry): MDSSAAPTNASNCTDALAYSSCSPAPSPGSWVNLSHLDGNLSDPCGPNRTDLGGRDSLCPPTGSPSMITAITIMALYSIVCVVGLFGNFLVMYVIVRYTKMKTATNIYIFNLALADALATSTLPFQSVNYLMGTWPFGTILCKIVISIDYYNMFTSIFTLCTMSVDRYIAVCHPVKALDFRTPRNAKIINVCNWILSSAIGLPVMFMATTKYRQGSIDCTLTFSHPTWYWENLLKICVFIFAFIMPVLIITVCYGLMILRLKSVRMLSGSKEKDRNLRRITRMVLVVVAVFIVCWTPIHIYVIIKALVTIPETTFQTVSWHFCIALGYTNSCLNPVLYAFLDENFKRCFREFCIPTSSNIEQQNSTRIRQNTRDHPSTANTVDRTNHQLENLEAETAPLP
Chain of Intestinal-type alkaline phosphatase (Mus musculus, UniProt P24822) (P24822 whole entry): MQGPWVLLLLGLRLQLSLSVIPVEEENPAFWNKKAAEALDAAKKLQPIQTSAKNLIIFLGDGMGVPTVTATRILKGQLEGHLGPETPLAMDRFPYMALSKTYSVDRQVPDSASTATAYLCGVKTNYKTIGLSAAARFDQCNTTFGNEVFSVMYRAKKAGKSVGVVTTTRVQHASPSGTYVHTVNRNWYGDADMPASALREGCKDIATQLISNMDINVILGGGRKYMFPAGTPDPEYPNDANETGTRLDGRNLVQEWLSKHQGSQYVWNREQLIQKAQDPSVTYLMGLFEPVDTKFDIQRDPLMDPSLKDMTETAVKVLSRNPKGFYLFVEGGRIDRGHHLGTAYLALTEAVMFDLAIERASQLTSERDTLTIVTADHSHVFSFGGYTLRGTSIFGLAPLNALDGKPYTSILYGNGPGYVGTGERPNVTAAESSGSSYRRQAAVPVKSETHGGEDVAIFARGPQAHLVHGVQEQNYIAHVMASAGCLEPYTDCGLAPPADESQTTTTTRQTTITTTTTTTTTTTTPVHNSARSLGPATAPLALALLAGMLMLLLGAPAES

The term EC50 denotes the concentration giving half of the maximal effect. With `Fc1ccc(CSc2nnc(-c3ccccn3)n2Cc2ccco2)c(F)c1F`, the EC50 is 5.29 µM (active) in data set [1], 7.01 µM (active) in [2], > 32 µM (inactive) in [3] and > 64 µM (inactive) in data set [4].
Broadly, the IC50 is the concentration that inhibits the measured activity by half. As to `O=c1cc(-c2ccc(O)cc2)oc2c(O)c(O)c(O)c(O)c12`, the values for the EC50 in data set [5], in [7] and in [11] were 71.9 µM (active), 43.4 µM (active) and 81 µM (active), respectively. Also, the IC50 in data set [6] is 18.8 µM (not active); in [8] it was > 109 µM (not active); in data set [9] it was > 94.2 µM (inactive); in [10] it was > 100 µM (active).
Regarding `O=C(CN1CCOCC1)N/N=C/c1ccc([N+](=O)[O-])o1`, the EC50 in [12] is 0.127 µM (active).
Regarding `COCC/N=c1\ssnc1Cl`, the IC50 in [13] was > 100 µM (inactive); in [14] it was 11.9 µM (active).
As for `Oc1ccc(-c2n[nH]c(C(F)(F)F)c2-c2ccccc2)c(O)c1`, the EC50 was > 32 µM (inactive) in [15], > 32 µM (inactive) in data set [17] and 27.4 µM (inactive) in data set [18]. Moreover, the IC50 was > 32 µM (inactive) in [16]; 11 µM (active) in [19]; 3.49 µM (active) in data set [20]; > 32 µM (inactive) in data set [21]; 10.9 µM (inactive) in data set [22]; 2.95 µM (active) in [23].
Usually AC50 stands for the concentration giving half of the maximal activity seen. In the case of `Cc1ccc(C)c(N2CCN(C(=O)C3CCN(S(=O)(=O)c4cccc5nsnc45)CC3)CC2)c1`, the values for the AC50 entry in data set [24], in data set [25] and in data set [26] were “inconclusive”, 4.47 µM (inconclusive) and 7.08 µM (inconclusive), respectively.
Consider `CC(C)[C@@H]1C(=O)N(S(C)(=O)=O)[C@H]2CCN(C(=O)/C=C\CN3CCCCC3)[C@@H]12`, for which the AC50 result in data set [27] is “inconclusive”; in data set [25] it was 20 µM (inconclusive).
